Like-named read-outs stand apart in the source and are kept apart here. Where no end group is shown, it is not given here. The star is where a group is joined. Myristoyl = CCCCCCCCCCCCCC(=O)*
Experiments:
[1] = tested on: Human keratinocyte cells (HaCaTs); settings: 50 μg/mL (highest concentration), 24 h, CCK8
Protocol: (§1) Human keratinocyte cells (HaCaTs) and human skin fibroblasts (HSFs) were seeded in 96-well plates at a density of 5000 cells per well. After overnight culture, different concentrations of AMP MYR-DM-ANG1-7 were added to the cells, and then, the cells were cultured for 24 h. Untreated cells were supplemented with fresh culture medium as the control group. Subsequently, 10% by volume of CCK8 solution (5 mg/mL) was added to each well.
(§2) After incubation for 1 h, the absorbance in each well was measured at 450 nm using an M200 full-band microplate reader (Infinite M200 PRO, Switzerland). Finally, the cell viability was calculated relative to the control groups.

[2] = tested on: human skin fibroblasts (HSFs); settings: 1.56 μg/mL (lowest concentration), 24 h, CCK8
Protocol: as §1, §2

HUVECs [3] = assay: Tube formation (angiogenesis) on Matrigel; format: cell-based, human; settings: 9 h, n = 3
Protocol: The formation of vascular structure was observed by matrix glue experiment, and the angiogenesis ability was evaluated in Matrigel stent (Corning, New York). After treatment in each group, 300 μL (2 × 10^5 cells/mL) HUVECs were digested and inoculated into a 24-well plate containing Matrigel scaffold. After 9 h, the formation image of the tube was photographed.

HUVECs [4] = assay: Reactive oxygen species, DCFH-DA flow cytometry; format: cell-based, human; settings: 20 μg/mL, compared with the HG + LPS group, p < 0.01
Protocol: To evaluate the antioxidant activity of MYR-DM-ANG1-7, HUVECs were cultured in DMEM supplemented with 10% FBS at 37°C and 5% CO2. After serum starvation for 24 h, the cells were divided into […] experimental groups: normal control group, high glucose + LPS, high glucose + DM group, and high glucose + MYR-DM-ANG1-7. After drug treatment, the cells were washed three times with ice-cold PBS and incubated with 10 μM DCFH-DA probe in serum-free medium at 37°C in the dark for 20 min. After removing the probe with PBS, the fluorescence intensity of 10,000 live cells was immediately measured by flow cytometry (excitation: 488 nm and emission: 530/30 nm). The data were expressed as the geometric mean fluorescence intensity (MFI) of each sample.

HUVECs [5] = assay: MDA, thiobarbituric acid method; format: cell-based, human; settings: HUVEC supernatant, HG + LPS (HG + LPS increased by 1.65 times); n = 3
Protocol: The level of MDA was determined by the thiobarbituric acid (TBA) method. Briefly, 100 μL of cell supernatant was mixed with 200 μL of a 10% trichloroacetic acid solution of 0.67% TBA. The mixture was incubated at 95°C for 30 min, cooled on ice, and centrifuged at 12,000 × g at 4°C for 10 min. The absorbance of the supernatant was measured at 532 nm using an enzyme-labeled instrument. The experiments were repeated three times.

[6] = tested on: mouse red blood cell suspension; settings: 37°C, 60 min, OD 590 nm, 0.1% Triton X-100 positive control
Protocol: In order to evaluate the hemolytic activity of self-assembled peptides on normal mammalian cells, fresh blood of normal mice was collected, and heparin sodium was anticoagulated and stored. After centrifugation at 4°C and 3000 rpm for 10 min, the precipitate was collected, washed, and centrifuged with normal saline for three times and then resuspended at 10% (v/v). We mix 100 μL of different concentrations of drugs with 100 μL of mouse red blood cell suspension, incubate in a constant temperature oscillation incubator at 37°C for 60 min, then take out and centrifuge according to the above setting, absorb 100 μL of supernatant, put it in a 96-well cell culture plate, and measure the OD value at 590 nm by M200 full-band enzyme-labeled instrument (Infinite M200 Pro, Switzerland). Then, 100 μL of 0.1% Triton X-100 solution was used as a positive control and PBS as a negative control. According to the formula, hemolysis (%) = (experimental group OD value − negative control OD value)/(positive control OD value − negative control OD value) × 100%.

Myristoyl-SSRRKPCKGWLCKLKLRGGYTLIGSATNLNRPTYVRAGGGDRVYIHP (cysteines drawn unpaired) [MYR-DM-ANG1-7]
cell survival rate, HaCaT [1]: 92.4% | cell survival rate, HSF [2]: 95.16% | main connections of formed blood vessels (HUVECs [3]; HG + LPS (HG + LPS group 0.3 times)): 1.9 times | length of formed blood vessels (HUVECs [3]; HG + LPS (HG + LPS group 0.4 times)): 1.7 times | reduction of intracellular reactive oxygen species level (HUVECs [4]): approximately 32% | secretion of MDA, decreased by (HUVECs [5]): 0.51 times | hemolysis rate of red blood cells ([6]; 128 μg/mL): 6.01% | hemolysis rate of red blood cells ([6]; 8-64 μg/mL): less than 5%

— publication PMC12419922, “Myristoylated Cathelicidin-DM Fused With ANG1-7: A Novel Self-Assembling Antimicrobial Peptide for the Treatment and Mechanism of Diabetic Infected Wounds” (Journal of Diabetes Research, 2025)
